Legend:
[1] = system: human hepatocellular carcinoma huh-7 cells; experiment: Photosensitizer-mediated PDT, in vitro proliferation (MTT), huh-7; assay type: cell-based
Procedure: (§1) Several kinds of tumor cells (human cervical cancer Hela cells, human hepatocellular carcinoma huh-7 cells and murine mammary carcinoma 4T1 cells) cultured in vitro from a variety of tissues were taken as cell models, so as to investigate the photodynamic effects mediated by different doses of CEFN, CEFO, Ce6 and HPPH on the three different tumor cells (n=3). The specific experimental procedures were carried out as follows.
(§2) Cells in the logarithmic growth phase were harvested and seeded in a 24-well plate. After growing to a confluence of 70-80%, the cells were randomly divided into a control group (free of drug and light irradiation), a drug group and a photodynamic group. The CEFN, CEFO, Ce6 and HPPH were added respectively in dark, and for each drug, four final concentrations 1, 2, 5, and 10 μg/mL were set with 3 replicates for each group. After the co-incubation, the groups were treated individually. Regarding the photodynamic group, the light irradiation was performed at a wavelength of 660 nm and three different light intensities, i.e., 2, 4 and 8 J/cm^2. After that, each group was digested, and were inoculated into a 96-well plate at 100 μL per well with 4 replicates for each treatment. 24 hours later, the 96-well plate was subjected to MTT assay as follows. Each well was added with 20 μL of MTT (3-4,5-dimethylthiazol-2,5-diphenyltetrazolium bromide) solution in the dark and incubated for 4 hours. The supernatant was discarded, and the residue was dissolved with 150 μL of dimethyl sulfoxide for 15 min. After that, the 96-well plate was measured by a microplate reader for the absorbance (OD value). The relative cell viability was calculated as follows: relative cell viability=OD value of experimental group/OD value of control group*100%.

[2] = system: murine mammary carcinoma 4T1 cells; experiment: Antitumor activity as sonosensitizers (SDT) on tumor-bearing mice; assay type: in vivo; conditions: for Inhibitory rate (average ± SD, %) / Tumor weight (average ± SD, g): SDT 1.0 MHz, 3.0 W/cm^2, 3 min, 6 h after dosing, 7 days after SDT; for Body weight At the beginning / Body weight At the end: SDT, mice, in g (unit assumed)
Procedure: (§3) The murine mammary carcinoma cells (4T1 line) were subjected to adherent culture. After growing to a confluence of 70%-80%, the cells in the culture flask were routinely digested, centrifuged and counted, and then resuspended with 0.85% normal saline to a density of 1×10^7 cells/mL. The cell suspension was injected into the left lateral middle axillary subcutaneous part of […] Bal b/c healthy mice (female, aged 6-8 weeks) at 0.1 mL/mouse. When the tumor diameter, which was observed every other day, reached 0.6-0.8 cm, the mice with well-growing tumors and no ulcers on the epidermis were selected for grouped treatment.
Mice with similar body weight and uniform tumor size are selected and randomly divided into 6 groups with 6 mice for each group. 48 h after inoculation, the mice were subjected to drug administration separately from the tail vein by group.
[…] 6 h after drug administration, each group of mice was anesthetized by intraperitoneal injection with 0.2 mL of 1% pentobarbital sodium. Then the mice were fixed to allow the tumor growth site exposed. The SDT group was treated using an ultrasonic therapeutic apparatus at an impulse waveform of 1.0 MHz and power of 3.0 W/cm^2 for 3 min. 7 days after SDT, the animals were sacrificed. The tumor was stripped and weighed, and the body weight was recorded.

[3] = system: murine mammary carcinoma 4T1 cells; experiment: Photosensitizer-mediated PDT, in vitro proliferation (MTT), 4T1; assay type: cell-based
Procedure: as §1, §2
In this experiment, photodynamic effect mediated by the compounds (except CEFO and CEFN) in different Examples of this disclosure on the murine mammary carcinoma 4T1 cells was investigated. The experimental procedures are carried out as follows. Cells in the logarithmic growth phase were harvested and seeded in a 24-well plate. After growing to a confluence of 70-80%, the cells were randomly divided into multiple photodynamic groups and multiple no-light control groups. The compounds (as shown in Table 8a) with a final concentration of 10 μg/mL were added to each group respectively in dark with 3 replicates for each group, so as to co-incubate the cells with the drug. Regarding the multiple photodynamic groups, the light irradiation was performed at a wavelength of 660 nm and the light intensity of 8 J/cm^2. After that, each group was digested, and were inoculated into a 96-well plate at 100 μL per well with 4 replicates for light treatment and no light treatment. 24 hours later, the 96-well plate was measured by MTT assay as follows. Each well was added with 20 μL of MTT (3-4,5-dimethylthiazol-2,5-diphenyltetrazolium bromide) solution in the dark and incubated for 4 hours. The supernatant was discarded, and the residue was dissolved with 150 μL of dimethyl sulfoxide for 15 min. After that, the 96-well plate was measured by a microplate reader for the absorbance (OD value). The relative cell viability of the murine mammary carcinoma 4T1 cells was calculated as follows according to the measured absorbance (OD value) in each group: relative cell viability=OD value of experimental group/OD value of control group*100%.

[4] = system: murine mammary carcinoma 4T1 cells; experiment: Antitumor activity as photosensitizers on tumor-bearing mice (two PDT treatments); assay type: in vivo; conditions: for Inhibitory rate (average ± SD, %) / Tumor weight (average ± SD, g): 0.25 mg/kg tail vein, two PDT treatments one week apart, 660 nm, 150 Joule/cm^2, 14 days after treatment; for Body weight At the beginning / Body weight At the end: 0.25 mg/kg, two PDT treatments, mice, in g (unit assumed)
Procedure: as §3
(2) Mice with similar body weight and uniform tumor size are selected and randomly divided into 4 groups with 6 mice for each group. After inoculation of 4T1 cells and the tumor volume grows to 50˜80 mm^3, the mice were subjected to a first drug administration from the tail vein by group.
6 h after the drug administration, the mice were fixed to expose the tumor growth site. As a first PDT treatment, light irradiation was performed for 8 min, using PDT-660 photodynamic therapy equipment at the laser wavelength of 660 nm and the light dose of 150 Joule/cm^2. One week later, the second PDT treatment (the dosage and lighting conditions were the same as those of the first PDT treatment) was performed. The mice were sacrificed 14 days after the treatment. The tumor was removed, weighed and recorded.

3-hexoxymethyl-3-devinyl-chlorin e4 disodium salt [CEFO]
cell viability (%) ([1]; 1 μg/mL, 660 nm, 2 J/cm^2): 63 ± 3% | cell viability (%) ([1]; 1 μg/mL, 660 nm, 4 J/cm^2): 60 ± 3% | cell viability (%) ([1]; 1 μg/mL, 660 nm, 8 J/cm^2): 53 ± 3% | cell viability (%) ([1]; 1 μg/mL, no light): 99 ± 2% | cell viability (%) ([1]; 2 μg/mL, 660 nm, 2 J/cm^2): 58 ± 1% | cell viability (%) ([1]; 2 μg/mL, 660 nm, 4 J/cm^2): 53 ± 3% | cell viability (%) ([1]; 2 μg/mL, 660 nm, 8 J/cm^2): 30 ± 2% | cell viability (%) ([1]; 2 μg/mL, no light): 99 ± 2% | cell viability (%) ([1]; 5 μg/mL, 660 nm, 2 J/cm^2): 39 ± 2% | cell viability (%) ([1]; 5 μg/mL, 660 nm, 4 J/cm^2): 24 ± 2% | cell viability (%) ([1]; 5 μg/mL, 660 nm, 8 J/cm^2): 27 ± 1% | cell viability (%) ([1]; 5 μg/mL, no light): 97 ± 3% | cell viability (%) ([1]; 10 μg/mL, 660 nm, 2 J/cm^2): 25 ± 2% | cell viability (%) ([1]; 10 μg/mL, 660 nm, 4 J/cm^2): 9 ± 1% | cell viability (%) ([1]; 10 μg/mL, 660 nm, 8 J/cm^2): 7 ± 1% | cell viability (%) ([1]; 10 μg/mL, no light): 93 ± 4% | Inhibitory rate (average ± SD, %) ([2]; 2.5 mg/kg tail vein): 64.3 ± 4.3% | Tumor weight (average ± SD, g) ([2]; 2.5 mg/kg tail vein): 0.061 ± 0.007 g | Body weight At the beginning ([2]; 2.5 mg/kg): 20.4 ± 0.3 | Body weight At the end ([2]; 2.5 mg/kg): 21.4 ± 0.3 | Inhibitory rate (average ± SD, %) ([2]; 5 mg/kg tail vein): 84.2 ± 2.9% | Tumor weight (average ± SD, g) ([2]; 5 mg/kg tail vein): 0.027 ± 0.004 g | Body weight At the beginning ([2]; 5 mg/kg): 20.2 ± 0.2 | Body weight At the end ([2]; 5 mg/kg): 21.3 ± 0.2 | cell viability (%) ([3]; 1 μg/mL, 660 nm, 2 J/cm^2): 86 ± 3% | cell viability (%) ([3]; 1 μg/mL, 660 nm, 4 J/cm^2): 84 ± 4% | cell viability (%) ([3]; 1 μg/mL, 660 nm, 8 J/cm^2): 78 ± 3% | cell viability (%) ([3]; 1 μg/mL, no light): 103 ± 2% | cell viability (%) ([3]; 2 μg/mL, 660 nm, 2 J/cm^2): 67 ± 3% | cell viability (%) ([3]; 2 μg/mL, 660 nm, 4 J/cm^2): 41 ± 3% | cell viability (%) ([3]; 2 μg/mL, 660 nm, 8 J/cm^2): 39 ± 2% | cell viability (%) ([3]; 2 μg/mL, no light): 103 ± 2% | cell viability (%) ([3]; 5 μg/mL, 660 nm, 2 J/cm^2): 38 ± 2% | cell viability (%) ([3]; 5 μg/mL, 660 nm, 4 J/cm^2): 21 ± 2% | cell viability (%) ([3]; 5 μg/mL, 660 nm, 8 J/cm^2): 19 ± 42% | cell viability (%) ([3]; 5 μg/mL, no light): 99 ± 2% | cell viability (%) ([3]; 10 μg/mL, 660 nm, 2 J/cm^2): 29 ± 1% | cell viability (%) ([3]; 10 μg/mL, 660 nm, 4 J/cm^2): 5 ± 1% | cell viability (%) ([3]; 10 μg/mL, 660 nm, 8 J/cm^2): 3 ± 1% | cell viability (%) ([3]; 10 μg/mL, no light): 100 ± 3% | Inhibitory rate (average ± SD, %) [4]: 96.9 ± 3.1% | Tumor weight (average ± SD, g) [4]: 0.029 ± 0.028 g | Body weight At the beginning [4]: 20.2 ± 0.2 | Body weight At the end [4]: 22.2 ± 0.5

3-n-hexylaminomethyl-3-devinyl-chlorin e4 disodium salt [CEFN]
cell viability (%) ([1]; 1 μg/mL, 660 nm, 2 J/cm^2): 101 ± 3% | cell viability (%) ([1]; 1 μg/mL, 660 nm, 4 J/cm^2): 78 ± 3% | cell viability (%) ([1]; 1 μg/mL, 660 nm, 8 J/cm^2): 90 ± 3% | cell viability (%) ([1]; 1 μg/mL, no light): 97 ± 2% | cell viability (%) ([1]; 2 μg/mL, 660 nm, 2 J/cm^2): 87 ± 2% | cell viability (%) ([1]; 2 μg/mL, 660 nm, 4 J/cm^2): 68 ± 2% | cell viability (%) ([1]; 2 μg/mL, 660 nm, 8 J/cm^2): 64 ± 3% | cell viability (%) ([1]; 2 μg/mL, no light): 95 ± 3% | cell viability (%) ([1]; 5 μg/mL, 660 nm, 2 J/cm^2): 61 ± 2% | cell viability (%) ([1]; 5 μg/mL, 660 nm, 4 J/cm^2): 55 ± 3% | cell viability (%) ([1]; 5 μg/mL, 660 nm, 8 J/cm^2): 47 ± 2% | cell viability (%) ([1]; 5 μg/mL, no light): 93 ± 3% | cell viability (%) ([1]; 10 μg/mL, 660 nm, 2 J/cm^2): 50 ± 2% | cell viability (%) ([1]; 10 μg/mL, 660 nm, 4 J/cm^2): 12 ± 3% | cell viability (%) ([1]; 10 μg/mL, 660 nm, 8 J/cm^2): 9 ± 2% | cell viability (%) ([1]; 10 μg/mL, no light): 93 ± 1% | Inhibitory rate (average ± SD, %) ([2]; 2.5 mg/kg tail vein): 42.1 ± 4.2% | Tumor weight (average ± SD, g) ([2]; 2.5 mg/kg tail vein): 0.099 ± 0.007 g | Body weight At the beginning ([2]; 2.5 mg/kg): 20.5 ± 0.3 | Body weight At the end ([2]; 2.5 mg/kg): 21.6 ± 0.2 | Inhibitory rate (average ± SD, %) ([2]; 5 mg/kg tail vein): 66.7 ± 3.0% | Tumor weight (average ± SD, g) ([2]; 5 mg/kg tail vein): 0.057 ± 0.005 g | Body weight At the beginning ([2]; 5 mg/kg): 20.3 ± 0.2 | Body weight At the end ([2]; 5 mg/kg): 21.3 ± 0.3 | cell viability (%) ([3]; 1 μg/mL, 660 nm, 2 J/cm^2): 97 ± 2% | cell viability (%) ([3]; 1 μg/mL, 660 nm, 4 J/cm^2): 89 ± 3% | cell viability (%) ([3]; 1 μg/mL, 660 nm, 8 J/cm^2): 81 ± 3% | cell viability (%) ([3]; 1 μg/mL, no light): 97 ± 3% | cell viability (%) ([3]; 2 μg/mL, 660 nm, 2 J/cm^2): 79 ± 3% | cell viability (%) ([3]; 2 μg/mL, 660 nm, 4 J/cm^2): 52 ± 2% | cell viability (%) ([3]; 2 μg/mL, 660 nm, 8 J/cm^2): 39 ± 2% | cell viability (%) ([3]; 5 μg/mL, 660 nm, 2 J/cm^2): 59 ± 2% | cell viability (%) ([3]; 5 μg/mL, 660 nm, 4 J/cm^2): 24 ± 3% | cell viability (%) ([3]; 5 μg/mL, 660 nm, 8 J/cm^2): 18 ± 1% | cell viability (%) ([3]; 5 μg/mL, no light): 98 ± 2% | cell viability (%) ([3]; 10 μg/mL, 660 nm, 2 J/cm^2): 38 ± 3% | cell viability (%) ([3]; 10 μg/mL, 660 nm, 4 J/cm^2): 10 ± 2% | cell viability (%) ([3]; 10 μg/mL, 660 nm, 8 J/cm^2): 8 ± 3% | cell viability (%) ([3]; 10 μg/mL, no light): 101 ± 3% | Inhibitory rate (average ± SD, %) [4]: 86.1 ± 3.5% | Tumor weight (average ± SD, g) [4]: 0.132 ± 0.032 g | Body weight At the beginning [4]: 20.3 ± 0.3 | Body weight At the end [4]: 22.4 ± 0.4
